This data set concerns Botryococcus sp. colonies. The data set can be described thus: Flotation (buoyancy) of bottom-dwelling colonies as visual assay of hydrocarbon content. Type of data set: cell-based. The source says:
Previous investigations (Ohmori, et al. 1984; and Wolf, et al, 1985) verified that colonies containing greater than 20% of dry weight as botryococcenoid hydrocarbons were buoyant and that colonies containing less than 5% hydrocarbons remained sunken at the bottom of the culture vessel, providing a visual method for selecting cells with commercial-grade hydrocarbons. […] Colonies in hydrocarbon-enhancement were placed […] without supplemental carbon dioxide gas to eliminate artifacts of flotation from bubbles. Environmental conditions were 150 μE/m^2/sec PAR to 1700 μE/m^2/sec PAR at 25-37° Centigrade. Nutrient chemicals were reagent grade in all laboratory-scale experiments. In field-scale tests, fertilizer grade chemical nutrients were provided. In order to minimize or eliminate ammonia, nitrates were optionally kiln dried prior to admixture. Supplementation with 0.1% to 100% carbon dioxide gas or carbonate (e.g., 10 mg/ml sodium bicarbonate or potassium bicarbonate) increased hydrocarbon synthesis substantially, especially, when under the highest light intensities with soluble elements of the present invention.
Stock cultures were taken from bottom-dwelling colonies that had been maintained in conventional liquid culture media, typified by approximately 1 ppm to 10 ppm phosphate, 0.01 ppm to 0.3 ppm iron, and 0.01 ppm to 0.5 ppm zinc, as for example, in Showa medium and other phycological media. Aqueous nutrient solutions were placed in sterile culture tubes and flasks and steam sterilized twice for 60 minutes. Following inoculation and growth, colonies were concentrated with overnight settling and approximately one million submerged green colonies were collected from the bottom of culture vessels. Equal volumes were resuspended into replicate culture vessels with equal volumes of enhancement media in the highest light intensities available in preparation for experiments. Control cultures were transferred into equal volumes of Showa medium and placed side by side under identical conditions as controls.

The source of these data is patent US20090087889A1, “Methods and compositions for growth hydrocarbons in botryococcus sp” (priority 2005, published 2009).

Turning to `[Zn+2]` [Zn^+2], where the note is “100 ppm Zn^+2, approximately two to eight weeks”, the “colour of colonies after long exposure” value is given as “color change of the colonies toward amber”.
In the case of phosphates, the “colour of colonies after long exposure” value (200 mM to 300 mM phosphates, approximately two to eight weeks) is listed as “color change of the colonies toward amber”. Further, the “state of colonies after long exposure” value (after two weeks or more in 300 mM phosphate) is reported as “remained floating, but cleared to amber”. For the same compound, for the setting “in water with up to 300 mM phosphates”, the “time until bottom-dwelling colonies began to rise to the surface” value is at most 5 h. The “total phosphate concentration that stimulated the rise of colonies to the surface” value (subtractive matrix analysis, most rapid in presence of soluble Mg, Mn, Fe and Zn^+2) is given as “greater than 80 mM”.
